Measured values published in patent US4303674A, “Substituted decalins, their preparation and use” (Beecham Group Limited, priority 1979, dated 1981).
Entries after “also recorded” stand apart in the source; their conditions may differ.

Tests used:
[1] = system: croton oil-induced inflammation of the rat ear; assay: topical anti-inflammatory model, croton oil irritant solution on rat ears (based on Fregnan & Torsello 1975); type: in vivo, Rats, Charles River Wistar strain, male; settings: for reduction of the increase in ear weight / activity (in words): topical
Experimental: 1. Compounds (5) and (6) were tested for anti-inflammatory activity in a topical model based on that described by Fregnan G. B. & Torsello, A. L. (1975) Current Therapeutic Research 17, No. 4, 375-381.
In the test the activity of the novel compounds was compared with that of naproxen. In outline the method is as follows:
Rats, Charles River Wistar strain, .male. 10/group. Weight range 220-260 g.
Irritant solution applied consists of 74% diethyl ether (20% pyridine, 5% dist. H2 O, 1% croton oil. 0.05 ml is placed on each ear, compound being included in the irritant solution on one ear. 6 hours later the ears are removed by cutting along the hairline and weighed.
-ve controls--no irritant solution.
+ve controls--irritant solution on both ears.

[2] = system: cantharidin-induced inflammation of the rat ear; assay: anti-inflammatory test induced by the application of cantharidin to the rat ear (Boris & Hurley 1977); type: in vivo, male Wistar rats; settings: for Untreated Ear Wt mg ± s.e.: normal control 92.9, inflamed control 146.3; for Treated Ear Wt mg ± s.e.: normal control 95.0, inflamed control 162.0
Experimental: 2. Activity of Compound (5) in an anti-inflammatory test induced by the application of cantharidin to the rat ear
This model developed by Boris A and Hurley M., (1977) J. Invest. Dermatology, 68, 161-164 is claimed to be selective for the anti-inflammatory activity of corticosteroids. Groups of ten male Wistar rats received 0.05 ml per ear of a solution of 400 μg of cantharidin plus or minus compound in tetrahydrofuran. […]

[3] = system: croton oil-induced inflammation of the ear; assay: croton oil model of topical anti-inflammatory activity, dose response (1% croton oil in tetrahydrofuran); type: in vivo, rat; settings: for Treated Ear Wt mg ± s.e.: normal control 98.5, inflamed control 126.1; for Untreated Ear Wt mg ± s.e.: normal control 99.1, inflamed control 118.7; for ED50: 1% croton oil in tetrahydrofuran
Description: 3. A direct comparison of the activity of Compound (12) and Compound (5) in the croton oil model of topical anti-inflammatory activity

[4] = 2 mg/rat, first experiment (compounds 5, 6, naproxen), -ve control 128.4, +ve control 163.2, 6 hours
[5] = 2 mg/rat, first experiment, -ve control 122.5, +ve control 151.8, 6 hours
[6] = 2 mg/rat, first experiment, 6 hours

SMILES | Mean weight of Treated Ear [1, 4] | Mean weight of Untreated Ear [1, 5] | Treated Ear, % in parentheses (reduction of ear weight increase vs +ve control) [1, 6] | Untreated Ear, % in parentheses (reduction of ear weight increase vs +ve control) [1, 6] | reduction of the increase in ear weight / activity (in words) [1] | Untreated Ear Wt mg ± s.e. ([2]; 4 mg/ear) | Treated Ear Wt mg ± s.e. ([2]; 4 mg/ear) | Treated Ear % Inhibition ([2]; 4 mg/ear) | Untreated Ear % Inhibition ([2]; 4 mg/ear) | Treated Ear Wt mg ± s.e. ([3]; 1 mg/ear) | Untreated Ear Wt mg ± s.e. ([3]; 1 mg/ear) | Treated Ear % Inhibition ([3]; 1 mg/ear) | Untreated Ear % Inhibition ([3]; 1 mg/ear) | Treated Ear Wt mg ± s.e. ([3]; 2 mg/ear) | Untreated Ear Wt mg ± s.e. ([3]; 2 mg/ear) | Treated Ear % Inhibition ([3]; 2 mg/ear) | Untreated Ear % Inhibition ([3]; 2 mg/ear) | Treated Ear Wt mg ± s.e. ([3]; 4 mg/ear) | Untreated Ear Wt mg ± s.e. ([3]; 4 mg/ear) | Treated Ear % Inhibition ([3]; 4 mg/ear) | further results
CC(=O)CCC1CCC2=CC(=O)CCC2(C)C1 (stereo not shown) [Compound (5), 4a-Methyl-6-(3'-oxobutyl)-2,3,4,4a,5,6,7,8-octahydro-2-naphthalenone] | 135.4 ± 3.3 m.g. | 169.0 ± 7.4 m.g. | 80% | -59% | significantly reduced the increase in ear weight brought about by the irritant solution; also recorded: The activity was at the same dose as that of naproxen | 134.3 mg | 140.5 mg | 32% | 22% | 124.5 ± 4.6 mg | 119.9 ± 4.7 mg | 6% | -6% | 116.4 ± 3.8 mg | 119.9 ± 5.1 mg | 35% | -6% | 108.2 ± 2.8 mg | 115.5 ± 5.6 mg | 65% | Untreated Ear % Inhibition ([3]; 4 mg/ear): 16%; ED50 [3]: 2.8 mg/ear
CC(=O)CCC1CCC2=CC(=O)C=CC2(C)C1 (stereo not shown) [Compound (6)] | 134.3 ± 2.3 m.g. | 159.1 ± 5.1 m.g. | 83% | -25% | appeared equi-active with Compound (5) |  |  |  |  |  |  |  |  |  |  |  |  |  |  |  | 
CC(=O)CCC1CCC2=CC(=O)CCC2C1 (stereo not shown) [Compound (12), 6-(3'-Oxobutyl)-2,3,4,4a,5,6,7,8-octahydronaphthalene-2-one] |  |  |  |  |  |  |  |  |  | 116.1 ± 4.6 mg | 112.6 ± 5.5 mg | 36% | 31% | 109.8 ± 3.2 mg | 117.0 ± 2.8 mg | 59% | 9% | 106.3 ± 3.4 mg | 120.6 ± 4.5 mg | 72% | Mean weight of Treated Ear ([1]; 4 mg/rat, second experiment (compound 12), -ve control 127.0, +ve control 152.2): 136.9 ± 2.9 m.g.; Mean weight of Untreated Ear ([1]; 4 mg/rat, second experiment, -ve control 130.1, +ve control 159.4): 148.0 ± 3.9 m.g.; Treated Ear, % in parentheses (reduction of ear weight increase vs +ve control) ([1]; 4 mg/rat, second experiment): 61%; Untreated Ear, % in parentheses (reduction of ear weight increase vs +ve control) ([1]; 4 mg/rat, second experiment): 51%; Untreated Ear % Inhibition ([3]; 4 mg/ear): -10%; ED50 [3]: 1.6 mg/ear; potency relative to Compound (5) ([3]; dose response against 1% croton oil in tetrahydrofuran): of the order of two fold more potent than Compound (5)
C[C@]12CCC(=O)C=C1CC[C@@H]1[C@@H]2[C@@H](O)C[C@@]2(C)[C@H]1CC[C@]2(O)C(=O)CO [Hydrocortisone] |  |  |  |  |  |  |  |  |  |  |  |  |  |  |  |  |  |  |  |  | Untreated Ear Wt mg ± s.e. ([2]; 2 mg/ear): 142.0 mg; Treated Ear Wt mg ± s.e. ([2]; 2 mg/ear): 133.1 mg; Treated Ear % Inhibition ([2]; 2 mg/ear): 43%; Untreated Ear % Inhibition ([2]; 2 mg/ear): 8%
COc1ccc2cc([C@H](C)C(=O)O)ccc2c1 [Naproxen, reference compound] | 139.5 ± 3.0 m.g. | 162.2 ± 4.9 m.g. | 68% | -35% |  | 145.0 mg | 184.8 mg | -34% | 2% |  |  |  |  |  |  |  |  |  |  |  | Mean weight of Treated Ear ([1]; 2 mg/rat, second experiment (with compound 12), -ve control 127.0, +ve control 152.2): 141.2 ± 3.7 m.g.; Mean weight of Untreated Ear ([1]; 2 mg/rat, second experiment, -ve control 130.1, +ve control 159.4): 155.9 ± 4.1 m.g.; Treated Ear, % in parentheses (reduction of ear weight increase vs +ve control) ([1]; 2 mg/rat, second experiment): 44%; Untreated Ear, % in parentheses (reduction of ear weight increase vs +ve control) ([1]; 2 mg/rat, second experiment): 12%
